Laboratory results from PubChem BioAssay AID2060487 (Molecular Pharmacology Branch, DTP, NCI, 2025).

Tested on: 997537-175-T-J1-PDC complex spheroid viability
Assay: Anticancer human tumor 997537-175-T-J1-PDC patient-derived colon adenocarcinoma cell line growth inhibition [GQUAD]
Details: for IC50: curve of first compound; for viability, T/C: stronger effect = lower value
Outline: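 Viability of tumor cells grown as complex spheroids with endothelial and stromal cells, exposed to drug combinations. Top concentration at or near clinical Cmax (else 10 microM), diluted in half-log increments.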

[1] = second compound 0.0316 µM, first compound 0.0316 µM
[2] = second compound 0.0316 µM, first compound 0.1 µM
[3] = second compound 0.0316 µM, first compound 0.316 µM
[4] = second compound 0.0316 µM, first compound 1 µM
[5] = second compound 0.0316 µM, first compound 3.16 µM
[6] = second compound 0.0316 µM, first compound 10 µM
[7] = second compound 0.1 µM, first compound 0.0316 µM
[8] = second compound 0.1 µM, first compound 0.1 µM
[9] = second compound 0.1 µM, first compound 0.316 µM
[10] = second compound 0.1 µM, first compound 1 µM
[11] = second compound 0.1 µM, first compound 3.16 µM
[12] = second compound 0.1 µM, first compound 10 µM
[13] = second compound 0.316 µM, first compound 0.0316 µM
[14] = second compound 0.316 µM, first compound 0.1 µM
[15] = second compound 0.316 µM, first compound 0.316 µM
[16] = second compound 0.316 µM, first compound 1 µM
[17] = second compound 0.316 µM, first compound 3.16 µM
[18] = second compound 0.316 µM, first compound 10 µM
[19] = second compound 1 µM, first compound 0.0316 µM
[20] = second compound 1 µM, first compound 0.1 µM
[21] = second compound 1 µM, first compound 0.316 µM
[22] = second compound 1 µM, first compound 1 µM
[23] = second compound 1 µM, first compound 3.16 µM
[24] = second compound 1 µM, first compound 10 µM
[25] = second compound 3.16 µM, first compound 0.0316 µM
[26] = second compound 3.16 µM, first compound 0.1 µM
[27] = second compound 3.16 µM, first compound 0.316 µM
[28] = second compound 3.16 µM, first compound 1 µM
[29] = second compound 3.16 µM, first compound 3.16 µM
[30] = second compound 3.16 µM, first compound 10 µM
[31] = second compound 10 µM, first compound 0.0316 µM
[32] = second compound 10 µM, first compound 0.1 µM
[33] = second compound 10 µM, first compound 0.316 µM
[34] = second compound 10 µM, first compound 1 µM
[35] = second compound 10 µM, first compound 3.16 µM
[36] = second compound 10 µM, first compound 10 µM
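Also: spheroids exposed to the agents for 7 days.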
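For viability, T/C in this document: 100% = DMSO vehicle control viability.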

CC1COCCN1c1cc(-c2ccnn2C)c2ccnc(-c3ccn[nH]3)c2n1 (centres undefined) + CN(C)c1ccc(Nc2c3ccc(NC(=O)CCN4CCCC4)cc3nc3cc(NC(=O)CCN4CCCC4)ccc23)cc1
IC50 (second compound 0.0316 µM): 800 nM | IC50 (second compound 0.1 µM): 2460 nM | IC50 (second compound 0.316 µM): > 10000 nM | IC50 (second compound 1 µM): > 10000 nM | IC50 (second compound 3.16 µM): > 10000 nM | IC50 (second compound 10 µM): 264 nM | viability, T/C [1]: 86.6% | viability, T/C [2]: 78.5% | viability, T/C [3]: 58.1% | viability, T/C [4]: 43.9% | viability, T/C [5]: 46.8% | viability, T/C [6]: 30.1% | viability, T/C [7]: 95.8% | viability, T/C [8]: 81.9% | viability, T/C [9]: 69.5% | viability, T/C [10]: 56.6% | viability, T/C [11]: 40.1% | viability, T/C [12]: 52.9% | viability, T/C [13]: 97.7% | viability, T/C [14]: 69.4% | viability, T/C [15]: 61.6% | viability, T/C [16]: 35.5% | viability, T/C [17]: 54.9% | viability, T/C [18]: 59.8% | viability, T/C [19]: 82.5% | viability, T/C [20]: 59.7% | viability, T/C [21]: 56.1% | viability, T/C [22]: 34% | viability, T/C [23]: 68.8% | viability, T/C [24]: 51% | viability, T/C [25]: 60.6% | viability, T/C [26]: 70.3% | viability, T/C [27]: 52.3% | viability, T/C [28]: 44.1% | viability, T/C [29]: 67.8% | viability, T/C [30]: 60.6% | viability, T/C [31]: 89.6% | viability, T/C [32]: 68.8% | viability, T/C [33]: 43.8% | viability, T/C [34]: 32.6% | viability, T/C [35]: 50% | viability, T/C [36]: 59.5%

CC1COCCN1c1cc(C2(O)CC3CCC(C2)O3)c2cnn(-c3ccn[nH]3)c2n1 (centres undefined) + CN(C)c1ccc(Nc2c3ccc(NC(=O)CCN4CCCC4)cc3nc3cc(NC(=O)CCN4CCCC4)ccc23)cc1
IC50 (second compound 0.0316 µM): 786 nM | IC50 (second compound 0.1 µM): 461 nM | IC50 (second compound 0.316 µM): 1690 nM | IC50 (second compound 1 µM): 211 nM | IC50 (second compound 3.16 µM): > 10000 nM | IC50 (second compound 10 µM): > 10000 nM | viability, T/C [1]: 78.9% | viability, T/C [2]: 74.6% | viability, T/C [3]: 57.6% | viability, T/C [4]: 46.9% | viability, T/C [5]: 44.2% | viability, T/C [6]: 51.1% | viability, T/C [7]: 105% | viability, T/C [8]: 79% | viability, T/C [9]: 55.3% | viability, T/C [10]: 37.1% | viability, T/C [11]: 43.8% | viability, T/C [12]: 48.5% | viability, T/C [13]: 86.9% | viability, T/C [14]: 60.2% | viability, T/C [15]: 58.5% | viability, T/C [16]: 42.2% | viability, T/C [17]: 48.7% | viability, T/C [18]: 54.2% | viability, T/C [19]: 77.7% | viability, T/C [20]: 52.8% | viability, T/C [21]: 44.8% | viability, T/C [22]: 40.7% | viability, T/C [23]: 49% | viability, T/C [24]: 60% | viability, T/C [25]: 55.8% | viability, T/C [26]: 65.7% | viability, T/C [27]: 70.2% | viability, T/C [28]: 45.6% | viability, T/C [29]: 47.9% | viability, T/C [30]: 66.5% | viability, T/C [31]: 82.7% | viability, T/C [32]: 61.9% | viability, T/C [33]: 69.4% | viability, T/C [34]: 47% | viability, T/C [35]: 41.8% | viability, T/C [36]: 66.5%
